Data on one compound can be found in patent publication US6653342B2, “13-substituted milbemycin derivatives, their preparation and their use against insects and other pests” (Sankyo Company, Limited, priority 2000, dated 2003).

One series has as its system microfilariae (mf). The experiment in a line: Test on activity against microfilariae in culture with or without neutrophils (Test Example 8). The following applies: 37° C., 5% CO2, compared to broth containing mf only.
The subject of series [1] is cat fleas. The experiment in a line: whole plant or invertebrate. Format: in vivo. The following applies: 1 ppm in bovine serum sucked through Parafilm at 37° C.; dead fleas after 48 hours; 20 fleas per group; corrected by control group. As for the experimental part: A test container wherein the living space of fleas was isolated from bovine serum by use of Parafilm™ (obtainable from Aldrich Chemical Co. Ltd.), which is usually used as an artificial skin, was prepared. A compound to be tested was added to the bovine serum in an amount sufficient for its concentration to be 1 ppm, and the fleas were allowed to suck the serum sample through the Parafilm™ at 37° C. Each group consisted of 20 fleas. […] By counting the dead fleas in a control group without a test compound, the mortality was corrected.

For series [2], the system named is Southern root-knot nematode. The experiment in a line: Test on insecticidal effect against Southern root-knot nematode, cucumber on agar plate (Test Example 10). Format: in vivo. The following applies: 1000 ppm solution on filter paper disks. On the procedure: An agar plate (80 ml: containing 1.25 ppm of kanamycin, 1.25 ppm of streptomycin and 0.8585 ppm of penicillin) was prepared in a container (70×70×20 mm). The plate was planted with a cucumber in the cotyledon stage of development. […] One of the thus-treated paper disks was put into the agar plate and two further treated paper disks were laid over the cotyledon.
After treatment, the container was covered with an acrylic plate to prevent water evaporation. Four days later, about 2.5 ml of a suspension containing 500 second-stage larvae of Southern root-knot nematode were added dropwise to the agar plate. Ten days after addition of the larvae, the number of galls of nematodes was estimated. Each test was conducted at a temperature of 25° C. and a humidity of 65%. “Untreated” in this test is a control in which water was used to soak the filter paper instead of the test compound solution.
The following criteria were used to judge the results obtained:
0: equal to the treatment-free group (51 to 150 galls)
1: slightly less than the treatment-free group (36 to 50 galls)
2: less than the treatment-free group (21 to 35 galls)
3: markedly less than the treatment-free group (0 to 20 galls)

The subject of series [3] is cat fleas. The experiment in a line: Test on elimination of fleas from dogs (Test Examples 2 and 3). Format: in vivo, Ctenocephalides felis. The following applies: beagles. On the procedure:
Beagles provided for the test were infected with cat fleas prior to the commencement of the test. The number of fleas collected from the surface of the body of the dog three days after infection was counted and an infection ratio, calculated as the ratio of the fleas counted three days after infection to the initial number used to infect the dog, was determined for each dog.
The resulting test solution was administered dropwise to the interscapular region of each of four test beagles (4 to 7 months old) at a dose of 5 mg/kg body weight. On Day 7, Day 21 and Day 28 after administration of the test compound, each dog was infected with 100 cat fleas. The number of fleas collected from the surface of the bodies of the dogs three days after infection was counted. The number of fleas obtained before and after administration was determined to give an elimination ratio.
Thus, even 28 days after administration of the test compound, the elimination ratio was 100%.

Series [4] concerns hookworms (Ancylostoma caninum). The experiment in a line: Test on effect against hookworms in naturally infected dogs (Test Example 5). Format: in vivo. To be noted: dogs naturally infected with hookworm, one line per dog. As for the experimental part:
(§1) For each of these three parasites, the number of eggs per gram (EPG) of dog faeces excreted was measured before, and 7 to 9 days after, administration of the test compound. The number of worms excreted in the faeces of the dog (WEF) between administration of the test compound and the end of the test was measured. Upon completion of the test, each of the test dogs was subjected to post mortem to count the number of surviving worms in the digestive tract (SWDT).

In series [5] the test system is Perforating Scabies (Sarcoptes scabiei). The experiment in a line: Test on effect against perforating scabies, naturally infected dog (Test Example 7). Format: in vivo. As for the experimental part: (§2) Dogs and cats naturally infected with scabies were provided for the test. […] This was administered at a rate of 5 mg/kg body weight to a test animal in its poll region. The epidermis was scraped off the test animal from its ears and limbs before administration and then three weeks after administration of the test compound. The epidermis thus obtained was then charged in a 10% potassium hydroxide solution and the number of worm bodies and eggs was observed microscopically.

For series [6], the system named is whipworms (Trichuris vulpis). The experiment in a line: Test on effect against whipworms in naturally infected dogs (Test Example 6). To be noted: dogs naturally infected with whipworm, one line per dog. Format: in vivo. As for the experimental part:
as §1

Series [7] relates to roundworms (Toxocara canis). The experiment in a line: Test on effect against roundworms in naturally infected dogs (Test Example 4). Format: in vivo. To be noted: dogs naturally infected with roundworm, one line per dog. On the procedure: as §1
Series [8] concerns Perforating Scabies (Sarcoptes scabiei). The experiment in a line: Test on effect against perforating scabies, naturally infected cat (Test Example 7). Type of series: in vivo. As for the experimental part: as §2
[9] abbreviates: 5 mg/kg dropwise to poll region.
The mark [10] stands for this setting: 5 mg/kg to poll region, epidermis scraped from ears and limbs, counted microscopically.

Structures are written as SMILES. Where “and” joins values, the source holds several entries; their conditions need not be identical. Equal entries are not always repeated.

On to `CCC1OC2(CCC1C)CC1CC(CC=C(C)C(OC(=O)C3(c4ccc(NC(=O)COC)cc4)CCCC3)C(C)C=CC=C3COC4C(O)C(C)=CC(C(=O)O1)C34O)O2` (stereo not drawn) [Example 1(c), 13-[1-(4-Methoxyacetylaminophenyl)cyclopentanecarbonyloxy]-5-hydroxy-milbemycin A4], for which the “Percentage reduction of microfilariae” value in the series with microfilariae (mf) (mf + neutrophils + test compound (100 ng/ml)) is on record as 53.8%; with microfilariae (mf) (mf + test compound (100 ng/ml), no neutrophils) it was 0.02%. The “Mortality (%)” value with cat fleas [1] is given as 90.2%. Further, in [2] (graded by number of galls ten days after addition of larvae), the “Effect (result)” value is recorded as 3 (markedly less than the treatment-free group (0 to 20 galls)). Besides, the Number of galls in series [2] (ten days after addition of 500 second-stage larvae, 25° C., humidity 65%) is recorded as 6. In addition, the elimination ratio in the series on cat fleas [3] (5 mg/kg body weight dropwise to interscapular region (10% w/v solution), infected with 100 cat fleas 28 days after administration, counted three days after infection) came out at 100%. Besides, the “number of fleas collected from the surfaces of the bodies of the dogs three days after infection” value in the series on cat fleas [3] (5 mg/kg dropwise, infection with 100 cat fleas on each of Day 7, Day 21 and Day 28 after administration) is on record as “no fleas were collected”. For the same compound, the “EPG after 7-9 Days” value in series [4] (setting [9]) was found to be 0 eggs per gram; in [6] (setting [9]) it was 0 eggs per gram; in series [7] (5 mg/kg dropwise to poll region, eggs per gram of faeces), 0 eggs per gram. Further, the “Elimination ratio (%)” value in series [4] (5 mg/kg dropwise), in [6] (5 mg/kg dropwise) and in series [7] (5 mg/kg dropwise) was 100% throughout. For the same compound, the “SWDT (number of surviving worms in the digestive tract)” value in series [4] (5 mg/kg dropwise, post mortem) is 0; in [6] (5 mg/kg dropwise, post mortem), 0; in series [7] (5 mg/kg dropwise, post mortem), 0. In addition, the “After administration (three weeks later) Egg” value in series [5] (setting [10]) and in [8] (setting [10]) was 0 each time. In addition, the results for the “After administration (three weeks later) Worm body” value in series [5] (setting [10]) and in series [8] (setting [10]) were 9 and 0, respectively. The oviposition of scabies entry in series [5] (5 mg/kg, after three weeks) was “prevented completely”. Besides, the “WEF (number of worms excreted in the faeces)” value in series [7] (5 mg/kg dropwise, between administration and end of test, 5 mg/kg) is 3 and 5 and 8. The compound further came in with an effects against scabies in series [8] (5 mg/kg, after three weeks) of 100%. This compound also yielded an oviposition preventing effects in series [8] (5 mg/kg, after three weeks) of 100%.
